Reference: patent publication US4477670A, “4-Aryloxy-1,2,3,4-tetrahydroisoquinolines” (Hoechst-Roussel Pharmaceuticals Inc., priority 1982, dated 1984)
Counter-ions that a name gives are not always drawn. Like-named read-outs stand apart in the source and are kept apart here.

Legend:
[1] = system: phenyl-para-quinone induced writhing; experiment: phenyl-para-quinone writhing assay in mice (analgesia); assay type: in vivo; details: subcutaneous
Source text: The compounds of the invention are primarily useful as analgesic and anticonvulsant agents. […] Exptl. Biol. Med., 95, 729 (1953)]. Listed below in Table III is the analgesic effect of some of the compounds of the invention, expressed as percent inhibition of phenyl-para-quinone induced writhing.

[2] = system: supra maximal electroshock (extensor tonus); experiment: supra maximal electroshock assay (anticonvulsant); assay type: in vivo, male mice (Charles River, CD-1); details: Mus musculus, ip, read-out: % Inhibition (anticonvulsant effect)
Experimental: The compounds of the present invention are also useful as anticonvulsant agents for mammals as evidenced by the supra maximal electroshock assay of Woodbury, L. A. and Davenport, U. D. in Arch. Int. Pharmacodynam, Vol. 92 (1952) at pages 97-107.
In this method, groups of male mice are used (Charles River, CD-1), 18-30 grams. Drugs are prepared using distilled water and if insoluble, a surfactant is added. Control animals receive vehicle. Drugs are routinely administered intraperitoneally. The route of administration may be varied (orally, subcutaneously). The dosage volume is 10 ml/kg.
The animal's eyes are placed across the output terminals of an A.C. shocker that delivers 205 volts rms for 300 milliseconds. Electrode paste coats the animal's eyes at the point of contact with the terminals.
Protection is expressed as normalized percent inhibition relative to vehicle control.
A time response is carried out using 6 animals per group. Animals are tested at 30, 60 and 120 minutes post-drug. Additional time periods are tested if indicated by previous tests.
Listed below in Table II is the anticonvulsant effect of some of the compounds of the invention expressed as percent inhibition.

[3] = diuretic activity in rats, drug to urea ratio; assay type: in vivo, female Wistar rats; details: oral, urine 0-5 hours, vs urea 1000 mg/kg
Experimental: Selected compounds of the present invention are useful as diuretics. The diuretic activity of the compounds is measured in the following manner. Groups of female Wistar rats (150-200 grams) are used and they are food deprived 16 hours prior to testing. Drugs are prepared in 1% saline and administered in a dosage volume of 15 ml/kg orally. After dosing each animal is placed in an individual metabolic cage. Water is permitted ad libitum. Urine is collected from 0-5 hours after dosing. […] The individual urine samples are analyzed for sodium and/or potassium and chloride. Sodium and potassium values are typically determined using a flame photometer. Chloride determinations are typically made by a chloride analyzer. Sodium, potassium and chloride values are expressed as the mean milliequivalents (mEq)/kg/5 hrs. Diuresis is expressed as the mean milliliters (ml)/kg/5 hrs. The mean values obtained for sodium, potassium, chloride and diuresis are expressed in a ratio to the sodium, potassium, chloride and diuresis values obtained for the urea treated group. This ratio is called the "drug to urea ratio." A drug to urea ratio greater than or equal to one for diuresis and/or sodium is indicative of diuretic activity. The diuretic effect of some of the compounds of the invention, expressed as the ratio of (a) the mean values obtained for diuresis (urine volume) of the compound treated group to the urea treated group and (b) the mean values obtained for sodium of the compound treated group to the urea treated group, are given in Table I.

[4] = system: ptosis of tetrabenazine-induced depression; experiment: inhibition of tetrabenazine-induced depression (ptosis) in mice; assay type: in vivo; details: intraperitoneal
[5] = system: 5-HTP activity (continuous forelimb clonus); experiment: L-5-hydroxytryptophan (5 HTP) potentiation in rats; assay type: in vivo, male Wistar rats; details: Rattus norvegicus, ip
Experimental: Groups of six male Wistar rats (150-200 grams) are used in this test procedure. Four hours prior to testing pargyline HCl is prepared and administered by subcutaneous injection at 75 mg/kg in 1% saline and at a dosage volume of 1.25 ml/kg. Thirty minutes before testing, drugs are prepared using distilled water and, if insoluble, a suitable surfactant is added. Control groups receive vehicle. Drugs are routinely administered intraperitoneally (i.p.) at a dosage volume of 10 ml.kg. L-5-Hydroxytryptophan is prepared at 1.0 mg/kg in distilled water and is administered i.p. in volumes proportional to 10 ml/kg. Drugs are administered in a randomized manner and 5-minute post 5-HTP treatment the animals are observed for 15 minutes. […] Potentiation is expressed as normalized percent potentiation relative to vehicle control. When a compound is observed to potentiate 5-HTP activity, a dose range using ten animals per group is run in the same manner. An effective dose (ED) is determined by probit analysis.

[6] = intraperitoneal, probit analysis, read-out: ED50 (5-HTP potentiation)

**Q.** For “1,2,3,4-tetrahydro-4-(p-trifluoromethylphenyl)isoquinoline hydrochloride”, which “% Inhibition of phenyl-para-quinone induced writhing” value (“% Inhibition” for short) ([1]; 25.0 mg/kg) is on record?
**A.** 51%

**Q.** Which inhibition in vivo at 21 mg/kg ([2]; intraperitoneal, 21.0 mg/kg) does the source give for `FC(F)(F)c1cccc(OC2CNCc3ccccc32)c1` (stereo not drawn) [1,2,3,4-Tetrahydro-4-(m-trifluoromethylphenoxy)isoquinoline maleate] here?
**A.** 50%

**Q.** Which inhibition in vivo at 35 mg/kg ([2]; intraperitoneal, 35.0 mg/kg) does the source give for `FC(F)(F)c1ccc(OC2CNCc3ccccc32)cc1` (stereo not drawn) [1,2,3,4-Tetrahydro-4-(p-trifluoromethylphenoxy)isoquinoline hydrochloride] here?
**A.** 50%

**Q.** What does the source list for `CN(C)CCN1Cc2ccccc2C(Oc2ccc(C(F)(F)F)cc2)C1` (stereo not drawn) [2-(2-N,N--dimethylaminoethyl)-1,2,3,4-tetrahydro-4-(p-trifluoromethylphenoxy)isoquinoline]?
**A.** Diuresis Drug to Urea Ratio (Vol.) ([3]; 25 mg/kg): 1.1; Sodium Drug to Urea Ratio ([3]; 25 mg/kg): 1.4

**Q.** For `CCN(CC)CCN1Cc2ccccc2C(Oc2ccc(C(F)(F)F)cc2)C1` (stereo not drawn) [2-(2-N,N-Diethylaminoethyl)-4-(p-trifluoromethylphenoxy)-1,2,3,4-tetrahydroisoquinoline dioxalate], which “% Inhibition” value ([1]; 21.8 mg/kg) is on record?
**A.** 50%

**Q.** What about the inhibition in vivo at 14.8 mg/kg ([2]; intraperitoneal, 14.8 mg/kg) of the same compound?
**A.** 50%

**Q.** And the “Diuresis Drug to Urea Ratio (Vol.)” value ([3]; 25 mg/kg)?
**A.** 1.4

**Q.** And the “Sodium Drug to Urea Ratio” value ([3]; 25 mg/kg)?
**A.** 1.0

**Q.** With `CN(C)CCN1Cc2ccccc2C(Oc2ccc(C(F)(F)F)cc2)C1` (stereo not drawn) [2-(2-N,N-Dimethylaminoethyl)-4-(p-trifluoromethylphenoxy)-1,2,3,4-tetrahydroisoquinoline dihydrochloride] as the compound, how does the “% Inhibition” value ([1]; 14.4 mg/kg) read?
**A.** 50%

**Q.** And the inhibition in vivo at 10.3 mg/kg ([2]; intraperitoneal, 10.3 mg/kg)?
**A.** 50%

**Q.** With `CN(C)CCCN1Cc2ccccc2C(Oc2cccc(C(F)(F)F)c2)C1.O=C(O)/C=C\C(=O)O.O=C(O)/C=C\C(=O)O` (stereo not drawn) [2-(3-Dimethylaminopropyl)-1,2,3,4-tetrahydro-4-(m-trifluoromethylphenoxy)isoquinoline dimaleate] as the compound, how does the “% Inhibition” value ([1]; 25.0 mg/kg) read?
**A.** 53%

**Q.** What about the inhibition in vivo at 50 mg/kg ([2]; intraperitoneal) of the same compound?
**A.** 100%

**Q.** With `CN(C)CCCN1Cc2ccccc2C(Oc2ccc(C(F)(F)F)cc2)C1` (stereo not drawn) [2-(3-Dimethylaminopropyl)-1,2,3,4-tetrahydro-4-(p-trifluoromethylphenoxy)isoquinoline dihydrochloride] as the compound, how does the inhibition in vivo at 14.4 mg/kg ([2]; intraperitoneal, 14.4 mg/kg) read?
**A.** 50%

**Q.** With `CN(C)CCCN1Cc2ccccc2C(Oc2ccc([N+](=O)[O-])cc2)C1` (stereo not drawn) [2-(3-N,N-dimethylaminopropyl)-4-(p-nitrophenoxy)-1,2,3,4-tetrahydroisoquinoline dihydrochloride] as the compound, how does the “% Inhibition” value ([1]; 14.7 mg/kg) read?
**A.** 50%

**Q.** For `FC(F)(F)c1ccc(OC2CN(CCCN3CCCCC3)Cc3ccccc32)cc1.O=C(O)C(=O)O.O=C(O)C(=O)O` (stereo not drawn) [2-(3-Piperidinopropyl)-1,2,3,4-tetrahydro-4-(p-trifluoromethylphenoxy)isoquinoline dioxalate], which “% Inhibition” value ([1]; 15.4 mg/kg) is on record?
**A.** 50%

**Q.** What about the “Diuresis Drug to Urea Ratio (Vol.)” value ([3]; 10 mg/kg) of the same compound?
**A.** 1.6

**Q.** What about the “Sodium Drug to Urea Ratio” value ([3]; 10 mg/kg) of the same compound?
**A.** 2.2

**Q.** Which results are given for `CN1Cc2ccccc2C(Oc2cccc(C(F)(F)F)c2)C1.O=C(O)/C=C\C(=O)O` (stereo not drawn) [2-Methyl-1,2,3,4-tetrahydro-4-(m-trifluoromethylphenoxy)isoquinoline maleate]?
**A.** inhibition in vivo at 50 mg/kg ([2]; intraperitoneal): 67%; inhibition of the ptosis of tetrabenazine-induced depression ([4]; 20 mg/kg): 50%; ED50 [5, 6]: 7.8 mg/kg

**Q.** Which “inhibition of the ptosis of tetrabenazine-induced depression” value ([4]; 20 mg/kg) does the source give for `CN1Cc2ccccc2C(Oc2ccc([N+](=O)[O-])cc2)C1` (stereo not drawn) [2-Methyl-4-(p-nitrophenoxy)-1,2,3,4-tetrahydroisoquinoline] here?
**A.** 30%

**Q.** What about the ED50 [5, 6] of the same compound?
**A.** 4.5 mg/kg

**Q.** With `Clc1ccc(OC2CNCc3ccccc32)cc1` (stereo not drawn) [4-(p-Chlorophenoxy)-1,2,3,4-tetrahydroisoquinoline hydrochloride] as the compound, how does the inhibition in vivo at 23.4 mg/kg ([2]; intraperitoneal, 23.4 mg/kg) read?
**A.** 50%

**Q.** With `CN(C)CCCN1Cc2ccccc2C(Oc2ccc(Cl)cc2)C1` (stereo not drawn) [4-(p-Chlorophenoxy)-2-(3-dimethylaminopropyl)-1,2,3,4-tetrahydroisoquinoline dimaleate] as the compound, how does the inhibition in vivo at 50 mg/kg ([2]; intraperitoneal) read?
**A.** 100%

**Q.** With `CN1Cc2ccccc2C(Oc2ccc(C#N)cc2)C1` (stereo not drawn) [4-(p-Cyanophenoxy)-2-methyl-1,2,3,4-tetrahydroisoquinoline] as the compound, how does the “Diuresis Drug to Urea Ratio (Vol.)” value ([3]; 50 mg/kg) read?
**A.** 1.1

**Q.** And the “Sodium Drug to Urea Ratio” value ([3]; 50 mg/kg)?
**A.** 1.2

**Q.** With `O=C(O)/C=C\C(=O)O.O=[N+]([O-])c1ccc(OC2CNCc3ccccc32)cc1` (stereo not drawn) [4-(p-Nitrophenoxy)-1,2,3,4-tetrahydroisoquinoline maleate] as the compound, how does the “% Inhibition” value ([1]; 25.0 mg/kg) read?
**A.** 65%

**Q.** Which inhibition in vivo at 50 mg/kg ([2]; intraperitoneal) does the source give for `CN1Cc2ccccc2C(Oc2ccc(C(F)(F)F)cc2)C1` (stereo not drawn) [4-(p-Trifluoromethylphenoxy)-2-methyl-1,2,3,4-tetrahydroisoquinoline oxalate] here?
**A.** 50%

**Q.** What does the source list for `CN(C)CCC=C1c2ccccc2CCc2ccccc21` [Amitriptyline, reference compound]?
**A.** inhibition of the ptosis of tetrabenazine-induced depression ([4]; 2 mg/kg): 50%; ED50 ([5]; standard, unit inferred, read-out: ED50 (5-HTP potentiation), standard): 7.1 mg/kg

**Q.** For `CNC1=Nc2ccc(Cl)cc2C(c2ccccc2)=[N+]([O-])C1` [Chlorodiazepoxide, reference compound], which inhibition in vivo at 8 mg/kg [2] is on record?
**A.** 50%

**Q.** Which inhibition in vivo at 1.7 mg/kg [2] does the source give for `CN1C(=O)CN=C(c2ccccc2)c2cc(Cl)ccc21` [Diazepam, reference compound] here?
**A.** 50%

**Q.** With `C=C(CC)C(=O)c1ccc(OCC(=O)O)c(Cl)c1Cl` [ethacrynic acid, reference compound] as the compound, how does the “Diuresis Drug to Urea Ratio (Vol.)” value ([3]; 64 mg/kg) read?
**A.** 2.5

**Q.** With `O=C(O)COc1ccc(C(=O)c2cccs2)c(Cl)c1Cl` [tienilic acid, reference compound] as the compound, how does the “Diuresis Drug to Urea Ratio (Vol.)” value ([3]; 64 mg/kg) read?
**A.** 1.8

**Q.** With Propoxyphene [reference compound] as the compound, how does the “% Inhibition” value ([1]; 3.9 mg/kg) read?
**A.** 50%
